This is an account of results in patent US6758840B2, “Drug delivery device” (Metris Therapeutics Limited, priority 2000, dated 2004).

A short description of series [1]: Plasma mefenamic acid after intra-vaginal wax-layer device, eight monkeys (Example 4). In kind it is in vivo. The note with it: average 6.4 mg mefenamic acid per device, mean of eight Rhesus monkeys. The protocol:
Eight devices were prepared as described in Example 3. The devices were assayed and the average amount of mefenamic found to be in each device was 6.4 mg. Each device was inserted into the vagina of one of eight Rhesus monkeys. The monkeys all weighed in the range 7.27 kg to 8.95 kg.
Blood samples were taken from the Rhesus monkeys and the samples were assayed as described in Example 3, at the time intervals shown in the graph of FIG. 18. The results of this study are shown in the graph of FIG. 18, which indicates the concentration in ng/ml of mefenamic acid found in the plasma of the Rhesus monkeys with time following insertion of the devices of this example. Each point of the graph of FIG. 18 represents the mean value of the concentration of the eight monkeys.

Series [2] is described as follows: Plasma mefenamic acid after intra-vaginal device with wax layer (Example 3). The series is classed as in vivo, Rhesus monkeys. As to conditions: intra-vaginal tampon device, wax fluid-impermeable layer, mefenamic acid dusted on; Rhesus monkey plasma. The source says: Further devices according to the present invention were made and used to deliver a pharmaceutical agent intra-vaginally in Rhesus monkeys.
(§1) Materials used in the manufacture of commercial tampons for human use were reconstituted to produce tampons with dimensions 7 mm×25 mm or 5 mm×25 mm. Depending on the weight of an individual Rhesus monkey, one of these sizes of tampon was able to be conveniently inserted into the vagina of the Rhesus monkey.
Wax material was used to create a fluid-impermeable layer of the tampons by warming the wax layer to make it adhere to the body of the tampon. Once the wax layer had been applied, mefenamic acid was “dusted” onto the device while the device was warmed to aid adhesion between the wax and the mefenamic acid. Non-adherent mefenamic acid was removed.
(§2) Rhesus monkeys were anaesthetised with ketamine hydrochloride and one of the above-mentioned tampon devices was inserted into the vagina of each monkey. A 19 gauge catheter was inserted into the saphenous vein of each monkey. This catheter was used to collect blood samples during the course of the study. The monkeys were returned to their cages when appropriate.
(§3) Blood samples were taken at intervals and plasma was prepared and frozen. After the completion of the study, all plasma samples were assayed for the concentration of mefenamic acid.

Series [3] in a line: Plasma mefenamic acid after intra-vaginal device with adhesive tape layer (Example 2). The series is classed as in vivo, Rhesus monkeys. As to conditions: intra-vaginal tampon device, double-sided adhesive tape as fluid-impermeable layer, mefenamic acid powder dusted on; Rhesus monkey plasma.
Text: Devices according to the present invention were made and used to deliver a pharmaceutical agent intra-vaginally in Rhesus monkeys.
as §1
A strip of double-sided adhesive tape was secured to the surface of the tampons to function as the fluid-impermeable layer. Mefenamic acid powder was “dusted” onto the surface of the tape and non-adherent mefenamic acid was removed.
as §2, §3

A short description of series [4]: Comparison of uptake of mefenamic acid from device and from slurry (Example 5). In kind it is in vivo. The note with it: Rhesus monkeys. From the text: A comparison was made between the uptake of mefenamic acid in Rhesus monkeys where the mefenamic acid was introduced intra-vaginally using the devices of Example 3 and the uptake of mefenamic acid in Rhesus monkeys where a slurry comprising mefenamic acid was introduced intra-vaginally.
The slurry of mefenamic acid applied to a Rhesus monkey comprised a total amount of mefenamic acid that was greater than ten times that applied to a Rhesus monkey using the device of Example 3.
Blood samples were taken from the Rhesus monkeys and the samples were assayed as described in Example 3, at the time intervals shown in the graph of FIG. 19. The results of this study are shown in the graph of FIG. 19, which indicates the concentration in ng/ml of mefenamic acid found in the plasma of the Rhesus monkeys with time following insertion of the devices (circles) and slurry (triangles) of this example.

With `Cc1cccc(Nc2ccccc2C(=O)O)c1C` [mefenamic acid], in series [1], the “transport across the vaginal mucosa / systemic circulation (plasma concentration, FIG. 18)” value was “mefenamic acid was transported across the vaginal mucosa and systemic circulation of mefenamic acid was achieved”. The “transport across the vaginal mucosa / systemic circulation (plasma concentration, FIG. 17)” value in series [2] was “mefenamic acid was transported across the vaginal mucosa and systemic circulation of mefenamic acid was achieved”. The “transport across the vaginal mucosa / systemic circulation (plasma concentration, FIG. 16)” value in series [3] was “mefenamic acid was transported across the vaginal mucosa and systemic circulation of mefenamic acid was achieved”. Further, the “uptake of mefenamic acid (plasma concentration, FIG. 19)” value is “only limited uptake of mefenamic acid by the monkeys was achieved” in series [4] (introduced intra-vaginally as slurry, total amount greater than ten times that of the device); “transportation of mefenamic acid across the vaginal mucosa and systemic circulation of mefenamic acid in the Rhesus monkeys was achieved” in series [4] (introduced intra-vaginally using the device of Example 3 (wax layer)).
